The record followed here is article PMC7932537, “Quantitative profiling of protease specificity” (PLoS Computational Biology, 2021).

One assay has as its target MMP-9 (Homo sapiens, UniProt P14780). In words: K(obs) of individual phage substrates (set of 1369). It counts as biochemical. Conditions: MMP9, individual phage substrates, set of 1369 peptides.
Another assay concerns the target T1, MMP-2 (Homo sapiens, UniProt P08253).
T1 sequence (P08253 110-660): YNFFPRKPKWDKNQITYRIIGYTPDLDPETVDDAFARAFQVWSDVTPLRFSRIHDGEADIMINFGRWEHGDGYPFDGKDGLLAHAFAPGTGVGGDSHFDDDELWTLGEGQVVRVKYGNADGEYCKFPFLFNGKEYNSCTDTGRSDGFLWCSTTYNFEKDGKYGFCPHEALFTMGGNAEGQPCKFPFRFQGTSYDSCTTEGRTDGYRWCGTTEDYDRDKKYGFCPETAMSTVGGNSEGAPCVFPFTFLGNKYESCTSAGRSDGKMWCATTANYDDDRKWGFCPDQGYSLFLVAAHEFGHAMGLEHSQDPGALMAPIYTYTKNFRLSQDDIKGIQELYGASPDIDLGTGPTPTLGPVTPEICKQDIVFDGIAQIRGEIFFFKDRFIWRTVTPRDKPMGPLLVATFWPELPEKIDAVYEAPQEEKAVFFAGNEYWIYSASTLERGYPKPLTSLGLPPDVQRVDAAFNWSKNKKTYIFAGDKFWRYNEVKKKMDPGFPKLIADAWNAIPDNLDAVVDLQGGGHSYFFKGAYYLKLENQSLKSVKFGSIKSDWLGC
The description is as above. The format is biochemical. Conditions: MMP2.

[1] abbreviates: dash in sequence marks cleavage position.
Setting [2] is: individual phage substrate from the set of 1369 peptides, cleavage position marked by the dash in the sequence.
The mark [3] stands for this setting: '-' marks the cleavage position (P1-P1').
Setting [4] is: individual phage substrates, set of 1369 peptides, cleavage position marked by '-' in the sequence.

Chain of MMP-9 (P14780 94-707): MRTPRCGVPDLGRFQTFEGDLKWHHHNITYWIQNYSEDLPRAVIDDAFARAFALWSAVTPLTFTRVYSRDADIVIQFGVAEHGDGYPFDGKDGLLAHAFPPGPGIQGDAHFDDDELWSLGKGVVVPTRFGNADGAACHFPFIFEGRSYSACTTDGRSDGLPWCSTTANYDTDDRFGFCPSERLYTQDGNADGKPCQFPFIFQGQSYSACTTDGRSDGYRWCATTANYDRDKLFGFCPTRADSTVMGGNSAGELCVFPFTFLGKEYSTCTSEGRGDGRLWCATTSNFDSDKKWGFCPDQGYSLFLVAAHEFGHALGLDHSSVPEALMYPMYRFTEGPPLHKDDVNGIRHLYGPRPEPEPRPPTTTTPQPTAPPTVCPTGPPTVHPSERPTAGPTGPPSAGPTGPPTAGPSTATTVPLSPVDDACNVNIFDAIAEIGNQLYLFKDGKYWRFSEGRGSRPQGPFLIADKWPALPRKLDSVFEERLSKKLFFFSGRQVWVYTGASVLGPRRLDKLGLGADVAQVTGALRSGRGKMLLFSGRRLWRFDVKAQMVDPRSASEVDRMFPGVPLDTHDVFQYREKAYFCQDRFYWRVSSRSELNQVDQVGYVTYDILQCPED

On to GEIAS-LSTAS, for which the “Kobs” value was 84.609 M⁻¹ s⁻¹ on MMP-9 (setting [1]) and 7386.83 M⁻¹ s⁻¹ on MMP-2 (setting [2]).
On to GEVWR-LHTAS, for which the “Kobs” value at MMP-9 (setting [1]) was found to be 0 M⁻¹ s⁻¹; on MMP-2 (setting [2]), 56.119 M⁻¹ s⁻¹.
For the substance GFAIS-MVTAS, the “Kobs” value at MMP-9 (setting [3]) was found to be 84.609 M⁻¹ s⁻¹; at MMP-2 (setting [4]), 113.394 M⁻¹ s⁻¹.
With GFAKH-LLTAS, the figures for the “Kobs” value on MMP-9 (setting [1]) and at MMP-2 (setting [2]) were 201.585 M⁻¹ s⁻¹ and 56.119 M⁻¹ s⁻¹, respectively.
As for GFHRS-IRTAS, the figures for the “Kobs” value on MMP-9 (setting [1]) and at MMP-2 (setting [2]) were 0 M⁻¹ s⁻¹ and 292.668 M⁻¹ s⁻¹, respectively.
Regarding GGASG-LMTAS, the “Kobs” value is 84.609 M⁻¹ s⁻¹ on MMP-9 (setting [3]) and 451.441 M⁻¹ s⁻¹ on MMP-2 (setting [4]).
With GGHQW-LRTAS, the “Kobs” value worked out at 0 M⁻¹ s⁻¹ on MMP-9 (setting [1]) and 2687.73 M⁻¹ s⁻¹ on MMP-2 (setting [2]).
In the case of GGLGM-MLTAS, the “Kobs” value at MMP-9 (setting [3]) worked out at 0 M⁻¹ s⁻¹; on MMP-2 (setting [4]), 836.403 M⁻¹ s⁻¹.
GGSGA-LHRPG: the “Kobs” value at MMP-9 (setting [1]) was 0 M⁻¹ s⁻¹; on MMP-2 (setting [2]) it was 1071.29 M⁻¹ s⁻¹.
As to GGSGA-LIAND, the “Kobs” value at MMP-9 (setting [3]) came to 0 M⁻¹ s⁻¹; on MMP-2 (setting [4]) it was 874.197 M⁻¹ s⁻¹.
As for GGSGA-LQRLP, the “Kobs” value on MMP-9 (setting [3]) was 0 M⁻¹ s⁻¹; on MMP-2 (setting [4]), 113.394 M⁻¹ s⁻¹.
Regarding GGSGA-LQVPT, the “Kobs” value on MMP-9 (setting [3]) is 56.119 M⁻¹ s⁻¹; on MMP-2 (setting [4]), 0 M⁻¹ s⁻¹.
On to GGSGA-LREKV, for which the “Kobs” value stood at 292.668 M⁻¹ s⁻¹ at MMP-9 (setting [1]) and 201.585 M⁻¹ s⁻¹ at MMP-2 (setting [2]).
Consider GGSGA-LRVQL, for which the “Kobs” value at MMP-9 (setting [3]) is 0 M⁻¹ s⁻¹; on MMP-2 (setting [4]) it was 231.616 M⁻¹ s⁻¹.
The matching figures for GGSGA-LTMPL: 171.876 M⁻¹ s⁻¹ and 0 M⁻¹ s⁻¹.
Regarding GGSGA-LTSRF, the “Kobs” value at MMP-9 (setting [1]) was 0 M⁻¹ s⁻¹; on MMP-2 (setting [2]), 4613.14 M⁻¹ s⁻¹.
The matching figures for GGSGA-YTMVA: 551.253 M⁻¹ s⁻¹ and 726.013 M⁻¹ s⁻¹.
In the case of GGSGE-LRLSN, the “Kobs” value at MMP-9 (setting [3]) amounted to 0 M⁻¹ s⁻¹; on MMP-2 (setting [4]) it was 56.119 M⁻¹ s⁻¹.
Take GGSGF-LMSWM: the “Kobs” value on MMP-9 (setting [3]) was found to be 1112.44 M⁻¹ s⁻¹; at MMP-2 (setting [4]), 12792.1 M⁻¹ s⁻¹.
Turning to GGSGF-LVAKA, the “Kobs” value at MMP-9 (setting [1]) stood at 0 M⁻¹ s⁻¹; at MMP-2 (setting [2]), 1327.88 M⁻¹ s⁻¹.
Take GGSGF-LVRSL: the “Kobs” value on MMP-9 (setting [3]) is 10866.7 M⁻¹ s⁻¹; at MMP-2 (setting [4]), 9740.44 M⁻¹ s⁻¹.
For GGSGM-LLMKQ, the “Kobs” value on MMP-9 (setting [3]) and at MMP-2 (setting [4]) was 0 M⁻¹ s⁻¹ throughout.
Consider GGSGN-LIYWN, for which the “Kobs” value was determined as 142.481 M⁻¹ s⁻¹ at MMP-9 (setting [3]) and 231.616 M⁻¹ s⁻¹ at MMP-2 (setting [4]).
As for GGSGN-LTFLA, the entries for the “Kobs” value on MMP-9 (setting [1]) and at MMP-2 (setting [2]) were 0 M⁻¹ s⁻¹ and 451.441 M⁻¹ s⁻¹, respectively.
For GGSGN-LVRVR, the “Kobs” value worked out at 0 M⁻¹ s⁻¹ on MMP-9 (setting [1]) and 142.481 M⁻¹ s⁻¹ on MMP-2 (setting [2]).
The matching figures for GGSGP-LHQTK: 2218.08 M⁻¹ s⁻¹ and 1154.21 M⁻¹ s⁻¹.
Consider GGSGP-LMLPF, for which the figures for the “Kobs” value on MMP-9 (setting [3]) and on MMP-2 (setting [4]) were 517.582 M⁻¹ s⁻¹ and 3964.21 M⁻¹ s⁻¹, respectively.
GGSGP-LRARL: the “Kobs” value is 0 M⁻¹ s⁻¹ at MMP-9 (setting [1]) and 1816.46 M⁻¹ s⁻¹ at MMP-2 (setting [2]).
GGSGQ-LFNVG: the “Kobs” value was 762.325 M⁻¹ s⁻¹ on MMP-9 (setting [1]) and 4470.66 M⁻¹ s⁻¹ at MMP-2 (setting [2]).
For GGSGQ-LLATK, the figures for the “Kobs” value on MMP-9 (setting [1]) and on MMP-2 (setting [2]) were 0 M⁻¹ s⁻¹ and 619.843 M⁻¹ s⁻¹, respectively.
As to GGSGQ-LLLRN, the “Kobs” value at MMP-9 (setting [3]) and at MMP-2 (setting [4]) was 0 M⁻¹ s⁻¹ each time.
As to GGSGQ-LRREY, the “Kobs” value at MMP-9 (setting [1]) and on MMP-2 (setting [2]) was 355.093 M⁻¹ s⁻¹ each time.
As for GGSGR-LKWNL, the results for the “Kobs” value on MMP-9 (setting [1]) and at MMP-2 (setting [2]) were 690.17 M⁻¹ s⁻¹ and 551.253 M⁻¹ s⁻¹, respectively.
In the case of GGSGR-LLQFL, the figures for the “Kobs” value at MMP-9 (setting [3]) and at MMP-2 (setting [4]) were 0 M⁻¹ s⁻¹ and 8321.48 M⁻¹ s⁻¹, respectively.
With GGSGR-LMYER, the “Kobs” value on MMP-9 (setting [1]) and on MMP-2 (setting [2]) was 0 M⁻¹ s⁻¹ in each case.
Take GGSGR-LNMRL: the “Kobs” value at MMP-9 (setting [3]) and at MMP-2 (setting [4]) was 0 M⁻¹ s⁻¹ throughout.
